# According to PubChem BioAssay (NCI):
#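 Where inhibition never reached the appropriate level, the endpoint shown equals the highest concentration tested. Otherwise, values were interpolated linearly from a five-concentration, 48-hour dose response in 96-well plates. Abbreviation: GI50, concentration required for 50% inhibition of growth. TGI marks complete inhibition of growth.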
# Tests used:
# Experiment in all cases: growth of human tumour cells (NCI), 48 h
# [1] = system: COLO 205 colon
# [2] = system: HCT-116 colon
# [3] = system: HOP-62 NSCLC
# [4] = system: HT29 colon
# [5] = system: MCF7 breast
# [6] = system: NCI-H226 lung
# [7] = system: OVCAR-8 ovarian
# [8] = system: SF-539 CNS
# [9] = system: U251 CNS
# [10] = system: UACC-257 melanoma
SMILES,GI50 [1],TGI [1],GI50 [2],TGI [2],GI50 [3],TGI [3],GI50 [4],TGI [4],GI50 [5],TGI [5],GI50 [6],TGI [6],GI50 [7],TGI [7],GI50 [8],TGI [8],GI50 [9],TGI [9],GI50 [10],TGI [10]
C=C(C)[C@@H]1CC[C@]2(C(=O)O)CC[C@]3(C)[C@H](CC[C@@H]4[C@@]5(C)CCC(NC(=O)c6cccc(OC(C)=O)c6OC(C)=O)C(C)(C)[C@@H]5CC[C@]43C)[C@@H]12 (stereo not given in full),345 nM,1.9 µM,376 nM,1.54 µM,785 nM,3.3 µM,806 nM,3.14 µM,586 nM,6.42 µM,1690 nM,4.59 µM,0.996 µM,3.24 µM,576 nM,2.5 µM,520 nM,14.5 µM,0.209 µM,0.78 µM
CCN(Cc1ccccc1)c1ccc(CO)c(Cl)c1,1740 nM,4.51 µM,110 nM,10.2 µM,963 nM,79.5 µM,3070 nM,36.3 µM,338 nM,25.9 µM,91.3 nM,0.233 µM,12.1 µM,> 100 µM,30200 nM,> 100 µM,1000 nM,50.1 µM,0.131 µM,0.316 µM
COc1cccc(/C=C/[N+](=O)[O-])c1,1860 nM,3.54 µM,1490 nM,3.31 µM,12800 nM,26.6 µM,1920 nM,4.48 µM,1200 nM,3.93 µM,26200 nM,65.3 µM,10.7 µM,25.1 µM,2640 nM,8.72 µM,4040 nM,14.8 µM,3.19 µM,11.6 µM
CC(C)C[C@H](NC(=O)Cn1ccc(NCc2ccccc2)cc1=O)B(O)O,2480 nM,> 100 µM,576 nM,3.66 µM,4860 nM,29.5 µM,814 nM,8.41 µM,413 nM,> 100 µM,1190 nM,5.84 µM,4.69 µM,> 100 µM,296 nM,1.13 µM,6300 nM,> 100 µM,0.961 µM,4.73 µM
COc1cc2ncn(-c3cc(O[C@@H](C)c4ccccc4Cl)c(C(N)=O)s3)c2cc1OC,444 nM,> 25 µM,1010 nM,> 25 µM,744 nM,> 25 µM,107 nM,> 25 µM,111 nM,> 25 µM,2300 nM,> 19.4 µM,1.45 µM,> 25 µM,832 nM,> 25 µM,1840 nM,> 25 µM,3.1 µM,> 21.9 µM
O=c1cc(N2CCN(CCCCCOc3cc(O)c4c(=O)cc(-c5ccccc5)oc4c3)CC2)c2ccccc2o1,70500 nM,> 100 µM,25400 nM,> 100 µM,> 100000 nM,> 100 µM,17400 nM,> 100 µM,83100 nM,> 100 µM,23900 nM,> 100 µM,> 100 µM,> 100 µM,35600 nM,> 100 µM,> 100000 nM,> 100 µM,> 100 µM,> 100 µM
COc1ccc(-c2cc(-c3cccn3C)c(C#N)c(=O)[nH]2)cc1OC,> 100000 nM,> 100 µM,> 100000 nM,> 100 µM,> 100000 nM,> 100 µM,> 100000 nM,> 100 µM,> 100000 nM,> 100 µM,> 100000 nM,> 100 µM,> 100 µM,> 100 µM,66800 nM,> 100 µM,> 100000 nM,> 100 µM,> 100 µM,> 100 µM
C/C(=N\Nc1cc(C)c2ccccc2n1)c1ccccn1,< 18.8 nM,1.98 µM,< 40.1 nM,1.29 µM,70 nM,1.37 µM,40.8 nM,1.8 µM,89.4 nM,1.16 µM,225 nM,2.71 µM,0.0535 µM,1.35 µM,77.8 nM,0.693 µM,36.8 nM,1.16 µM,0.0874 µM,0.452 µM
CNC(=S)NC(=O)c1c(Cl)n(C(=O)OC(C)(C)C)c2ccccc12,59600 nM,> 100 µM,38500 nM,> 100 µM,> 100000 nM,> 100 µM,56700 nM,> 100 µM,28300 nM,> 100 µM,> 100000 nM,> 100 µM,89.1 µM,> 100 µM,35000 nM,> 100 µM,53600 nM,> 100 µM,94.5 µM,> 100 µM
N#Cc1ccc2c(c1)C(=O)c1c-2n(CCCCl)c(=O)c2cc([N+](=O)[O-])ccc12,> 100000 nM,> 100 µM,1820 nM,> 100 µM,2550 nM,14 µM,7930 nM,> 100 µM,380 nM,> 100 µM,9100 nM,89.9 µM,20.6 µM,> 100 µM,2620 nM,10.5 µM,1630 nM,16.4 µM,> 100 µM,> 100 µM
C=C1C(=O)O[C@H]2[C@H]1CC/C(COC(=O)c1cc3ccccc3o1)=C\CC[C@@]1(C)O[C@@H]21,1550 nM,3.15 µM,320 nM,1.3 µM,2480 nM,7.07 µM,829 nM,2.21 µM,395 nM,2.18 µM,1740 nM,3.6 µM,2.43 µM,7.63 µM,1450 nM,2.84 µM,1630 nM,3.16 µM,1.52 µM,3.04 µM
O=c1ccs[nH]1,,30.9 µM,,38.3 µM,,38.6 µM,,34.4 µM,,38.7 µM,,71.6 µM,,32.9 µM,,18.3 µM,,21.4 µM,,33.2 µM
Cc1ccc2c(-c3ccnc(Nc4ccccc4)n3)c(-c3ccc(F)cc3)nn2n1,11100 nM,> 25 µM,4480 nM,14.6 µM,19400 nM,> 25 µM,2340 nM,> 19.2 µM,7440 nM,> 25 µM,8230 nM,24.2 µM,9.79 µM,> 25 µM,6990 nM,> 19.3 µM,9800 nM,> 25 µM,6.85 µM,15.1 µM
NC[C@H]1Nc2ccccc2[C@@H](O)C1O (stereo not given in full),,> 100 µM,,> 100 µM,,> 100 µM,,> 100 µM,,> 100 µM,,> 100 µM,,> 100 µM,,> 100 µM,,> 100 µM,,> 100 µM
c1ccc2c(NCCCCCCNc3c4ccccc4nc4ccccc34)c3ccccc3nc2c1,,1.58 µM,,0.693 µM,,2.21 µM,,1.77 µM,,2.07 µM,,3.54 µM,,3.18 µM,,0.835 µM,,2.59 µM,,8.28 µM
c1cc(N2CCCN(c3ccc(C4=NCCCN4)cc3)CC2)ccc1C1=NCCCN1,> 100000 nM,> 100 µM,> 100000 nM,> 100 µM,> 100000 nM,> 100 µM,> 100000 nM,> 100 µM,> 100000 nM,> 100 µM,> 100000 nM,> 100 µM,> 100 µM,> 100 µM,59400 nM,> 100 µM,65900 nM,> 100 µM,> 100 µM,> 100 µM
